Active and inactive are the calls of the source. No cut-off for these calls is given here.
How the values were obtained:
[1] = tested on: PD002; test: Inhibition of DPAGT1 protein expression in human PD002 cells at 0.2 uM incubated for 24 hrs by Western blot analysis; assay type: functional, cell-based
[2] = Inhibition of cell proliferation in human PD002 cells incubated for 72 hrs; assay type: functional
[3] = Cytotoxicity in mouse L1210 cells assessed as reduction in cell viability incubated for 72 hrs by MTT assay; settings: L1210, 72 h
[4] = Synergistic cytotoxicity in human PD002 cells assessed as FIC at 2 uM incubated for 72 hrs in presence of 0.020 uM paclitaxel by IncuCyte live cell analysis imaging system based assay; assay type: functional
[5] = Synergistic cytotoxicity in human PD002 cells assessed as FIC at 0.1 uM incubated for 72 hrs in presence of 0.63 uM paclitaxel by IncuCyte live cell analysis imaging system based assay; assay type: functional
[6] = tested on: PD002; test: Inhibition of E-cadherin protein expression in human PD002 cells at 0 to 2 uM incubated for 24 hrs by Western blot analysis; assay type: functional, cell-based; settings: dose microM 0-2, time […]
[7] = tested on: HCT-116; test: Inhibition of E-cadherin protein expression in human HCT-116 cells at 0 to 2 uM incubated for 24 hrs by Western blot analysis; assay type: functional, cell-based; settings: dose microM 0-2, time […]
[8] = tested on: ASPC1; test: Inhibition of DPAGT1 protein expression in human ASPC1 cells at 0.2 uM incubated for 24 hrs by Western blot analysis; assay type: functional, cell-based
[9] = target: T1, UDP-N-acetylglucosamine--dolichyl-phosphate N-acetylglucosaminephosphotransferase (Homo sapiens) (UniProt Q9H3H5); test: Inhibition of DPAGT1 in human PD002 cells assessed as reduction in snail protein expression incubated for 24 hrs by immunofluorescence staining assay; assay type: cell-based
T1 sequence (whole entry): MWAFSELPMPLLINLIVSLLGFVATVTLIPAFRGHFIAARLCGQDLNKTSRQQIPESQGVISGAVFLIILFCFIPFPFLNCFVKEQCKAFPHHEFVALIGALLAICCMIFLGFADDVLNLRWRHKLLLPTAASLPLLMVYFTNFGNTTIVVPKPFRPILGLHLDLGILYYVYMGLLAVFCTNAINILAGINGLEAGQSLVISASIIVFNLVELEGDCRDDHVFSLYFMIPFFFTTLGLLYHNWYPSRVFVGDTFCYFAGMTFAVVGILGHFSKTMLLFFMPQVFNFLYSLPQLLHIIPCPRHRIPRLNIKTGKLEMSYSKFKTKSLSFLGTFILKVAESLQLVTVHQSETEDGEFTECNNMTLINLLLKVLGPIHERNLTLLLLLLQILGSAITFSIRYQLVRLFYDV

[10] = tested on: PD002; test: Inhibition of cell migration in human PD002 cells at 0.1 uM incubated for 0.5 hrs by crystal violet staining based Boyden chamber assay; assay type: functional
[11] = tested on: HCT-116; test: Cytotoxicity in human HCT-116 cells assessed as reduction in cell viability incubated for 72 hrs by MTT assay; assay type: functional, cell-based; settings: HCT-116, 72 h
[12] = Inhibition of DPAGT1 protein expression in human HCT-116 cells assessed as DPAGT1 protein level at 0.1 to 20 uM incubated for 24 hrs by Western blot analysis; assay type: functional; parameters: scale not given: the % may be the effect or the level left; settings: dose microM 0.1-20
[13] = Cytotoxicity in human PD002 cells assessed as phase area confluence level at 50 uM incubated for 72 hrs by IncuCyte live cell analysis imaging system based assay (reference value: 70%)
[14] = Cytotoxicity in human hTERT-HPNE cells assessed as reduction in cell viability incubated for 72 hrs by MTT assay; assay type: cell-based
[15] = Synergistic cytotoxicity in human PD002 cells assessed as FIC at 0.1 uM incubated for 72 hrs in presence of […] paclitaxel by IncuCyte live cell analysis imaging system based assay; assay type: functional
[16] = tested on: PANC-1; test: Inhibition of DPAGT1 protein expression in human PANC-1 cells at 0.2 uM incubated for 24 hrs by Western blot analysis; assay type: functional, cell-based
[17] = tested on: DLD-1; test: Cytotoxicity in human DLD-1 cells assessed as reduction in cell viability incubated for 72 hrs by MTT assay; assay type: functional, cell-based; settings: DLD-1, 72 h
[18] = Cytotoxicity in human PD002 cells assessed as reduction in cell viability incubated for 72 hrs by MTT assay; assay type: functional, cell-based; settings: PD002, 72 h
[19] = target: T1, UDP-N-acetylglucosamine--dolichyl-phosphate N-acetylglucosaminephosphotransferase (Homo sapiens); test: Inhibition of DPAGT1 in human PANC-1 cells assessed as reduction in snail protein expression incubated for 24 hrs by immunofluorescence staining assay; assay type: cell-based
[20] = tested on: Vero; test: Cytotoxicity in African green monkey Vero cells assessed as reduction in cell viability incubated for 72 hrs by MTT assay; assay type: cell-based; settings: Chlorocebus sabaeus
[21] = target: T1, UDP-N-acetylglucosamine--dolichyl-phosphate N-acetylglucosaminephosphotransferase (Homo sapiens); test: Inhibition of DPAGT1 in human PD002 cells assessed as reduction in snail protein expression incubated for 24 hrs by Western blot analysis; assay type: cell-based
[22] = target: T1, UDP-N-acetylglucosamine--dolichyl-phosphate N-acetylglucosaminephosphotransferase (Homo sapiens); test: Inhibition of DPAGT1 in human SiHa cells assessed as reduction in snail protein expression incubated for 24 hrs by Western blot assay; assay type: cell-based
[23] = tested on: HCT-116; test: Inhibition of DPAGT1 protein expression in human HCT-116 cells at 0.2 uM incubated for 24 hrs by Western blot analysis; assay type: functional, cell-based
[24] = Synergistic cytotoxicity in human PD002 cells assessed as FIC at 2 uM incubated for 72 hrs in presence of 0.039 uM paclitaxel by IncuCyte live cell analysis imaging system based assay; assay type: functional
[25] = tested on: SiHa; test: Inhibition of DPAGT1 protein expression in human SiHa cells at 0.2 uM incubated for 24 hrs by Western blot analysis; assay type: functional, cell-based
[26] = Synergistic cytotoxicity in human PD002 cells assessed as FIC at 0.2 uM incubated for 72 hrs in presence of 0.031 uM paclitaxel by IncuCyte live cell analysis imaging system based assay; assay type: functional
[27] = tested on: PD002; test: Inhibition of DPAGT1 mRNA expression in human PD002 cells at 0 to 10 uM incubated for 24 hrs by RT-qPCR analysis; assay type: functional, cell-based; settings: dose microM 0-10, time […]
[28] = Inhibition of N-terminal 6x-His-tagged Hydrogenivirga-sp. 128-5-R1-1 MraY expressed in Escherichia coli NiCo21(DE3) incubated for 2 hrs by reversed-phase HPLC analysis
[29] = Inhibition of N-terminal His9-tagged Methanocaldococcus jannaschii DSM 2661 AglH incubated for 2 hrs using UDP-GlcN-Cg-FITC and alpha-dihydroundecap-renyl phosphate by reversed-phase HPLC analysis
[30] = tested on: ASPC1; test: Cytotoxicity in human ASPC1 cells assessed as reduction in cell viability incubated for 72 hrs by MTT assay; assay type: functional, cell-based; settings: ASPC1, 72 h
[31] = tested on: PANC-1; test: Inhibition of E-cadherin protein expression in human PANC-1 cells at 0 to 2 uM incubated for 24 hrs by Western blot analysis; assay type: functional, cell-based; settings: dose microM 0-2, time […]
[32] = tested on: HCT-116; test: Inhibition of DPAGT1 protein expression in human HCT-116 cells at 0.1 to 20 uM incubated for 72 hrs by immunofluorescence assay; settings: dose microM 0.1-20, time 72.0 hrs
[33] = tested on: SiHa; test: Cytotoxicity in human SiHa cells assessed as reduction in cell viability incubated for 72 hrs by MTT assay; assay type: functional, cell-based
[34] = Synergistic cytotoxicity in human PD002 cells assessed as FIC at 0.2 uM incubated for 72 hrs in presence of 0.0049 uM paclitaxel by IncuCyte live cell analysis imaging system based assay; assay type: functional

CO[C@H]1[C@@H](O)[C@H](n2ccc(=O)[nH]c2=O)O[C@@H]1[C@@H](O[C@H]1OC(C(=O)NCc2ccc(N3CCC(Oc4ccc(OC(F)(F)F)cc4)CC3)cc2)=C[C@H](O)[C@@H]1O)C(N)=O
inhibition [1]: Active | inhibition (INH) [2]: 20% | IC50 [3]: > 50 µM | FIC [4]: 0.021 | FIC [5]: 0.5 | inhibition [6]: inactive | inhibition [7]: inactive | inhibition [8]: Active | inhibition [9]: Active | inhibition [10]: Active | IC50 [11]: 15 µM | Activity [12]: 20% | Activity [13]: 10% | IC50 [14]: > 50 µM | FIC [15]: 0.13 | inhibition [16]: Active | IC50 [17]: 25 µM | IC50 [18]: 35 µM | inhibition [19]: Active | IC50 [20]: > 50 µM | inhibition [21]: Active | inhibition [22]: Active | inhibition [23]: Active | FIC [24]: 0.037 | inhibition [25]: Active | FIC [26]: 0.26 | inhibition [27]: inactive | IC50 [28]: 10.3 µM | IC50 [29]: 150 nM | IC50 [30]: 25 µM | inhibition [31]: inactive | inhibition [32]: inactive | IC50 [33]: 15 µM | FIC [34]: 0.0096

Source: ChEMBL document CHEMBL4699480 (J Med Chem, 2020)
